Experimental data as given in paper PMC9946977, “Identification of linderalactone as a natural inhibitor of SHP2 to ameliorate CCl4-induced liver fibrosis” (Frontiers in Pharmacology, 2023).

Columns and labels:
SHP2 PTP domain = molecular target: T1, SHP2 PTP domain (Homo sapiens, UniProt Q06124); experiment: SHP2 inhibition assay (DiFMUP) with SHP2-PTP; HTS and dose-response; format: biochemical
T1 construct: Human SHP2 PTP domain (A237–I529) expression constructs; His-tag; made in house; host or cells: E. coli BL21 (DE3)
T1 sequence (Q06124 237-529): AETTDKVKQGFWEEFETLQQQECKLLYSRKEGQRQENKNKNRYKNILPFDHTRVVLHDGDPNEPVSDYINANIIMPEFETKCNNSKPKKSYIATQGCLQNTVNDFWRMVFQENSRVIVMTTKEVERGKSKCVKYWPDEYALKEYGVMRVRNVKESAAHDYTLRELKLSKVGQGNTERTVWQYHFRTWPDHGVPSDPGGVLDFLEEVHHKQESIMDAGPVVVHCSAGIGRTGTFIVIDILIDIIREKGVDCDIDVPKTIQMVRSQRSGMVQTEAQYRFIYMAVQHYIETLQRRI
Procedure: Human SHP2 PTP domain (A237–I529) expression constructs were engineered by cloning PTPN11 (NP_002825.3) into the pET30 plasmid with a His-tag to support further protein purification. The K366A/Q510A double mutation was introduced into the wild-type template using a site-directed mutagenesis kit (E0554S; New England Biolabs). The expression constructs were sequenced and transformed into BL21 (DE3)-competent cells. E. coli cells were grown at 37°C in an LB culture medium in the presence of […] kanamycin until the OD600 reached 1.0. The medium was then cooled to 18°C and 1 mM isopropyl ß-D-1-thiogalactopyranoside (IPTG) was added to induce protein expression overnight.
A surrogate phosphatase substrate, 6,8-difluoro-4-methylumbelliferyl phosphate (DiFMUP, Thermo Fisher, #D22065), was used to monitor the catalytic activity of SHP2 in a prompt fluorescence assay format. Specifically, the DiFMUP phosphatase assay was performed at 20°C in a 384-well Griener CELLSTAR black polystyrene plate in the buffer condition of 60 mM HEPES (pH7.5), 75 mM NaCl, 75 mM KCl, 1 mM EDTA, 0.05% Tween-20, 5 mM dithiothreitol (DTT). The final reaction volume was 25 μL. NP compound libraries were obtained from TargetMol at a stock concentration of 10 mM, dissolved in DMSO. The purity of the active compound LIN used in this study is 96.27% as tested by HPLC analysis. The HPLC traces is shown in Supporting Information. We co-incubated 0.5 nM of SHP2-PTP enzyme with tested NPs for 30 min at 20°C, followed by the addition of DiFMUP into the reaction. After 30 min, 5 μL of bpV(phen) solution was added to quench the dephosphorylation reaction. The signals were read on a plate reader (SpectraMax iD5, Molecular Devices). The excitation and emission wavelengths were 340 and 450 nm, respectively. The inhibitor dose-response curves were evaluated using a normalised IC50 regression curve fitting with control-based normalisation. For the full-length SHP2 inhibition assay, 0.5 μM of a bisphosphorylated pIRS-1 peptide (ChinaPeptides Ltd. Shanghai) was added for partial SHP2 activation. […]

full-length SHP2 = molecular target: T2, full-length SHP2 (Homo sapiens, UniProt Q06124); experiment: full-length SHP2 inhibition assay (DiFMUP, pIRS-1 activated); format: biochemical; conditions: activating peptide p-IRS-1 supplemented; read-out: IC50 on full length SHP2 (SHP2-FL)
T2 construct: used for the expression and purification of the full-length SHP2; made in house; host or cells: E. coli (similar protocol as for SHP2-PTP)
T2 sequence (Q06124 1-593): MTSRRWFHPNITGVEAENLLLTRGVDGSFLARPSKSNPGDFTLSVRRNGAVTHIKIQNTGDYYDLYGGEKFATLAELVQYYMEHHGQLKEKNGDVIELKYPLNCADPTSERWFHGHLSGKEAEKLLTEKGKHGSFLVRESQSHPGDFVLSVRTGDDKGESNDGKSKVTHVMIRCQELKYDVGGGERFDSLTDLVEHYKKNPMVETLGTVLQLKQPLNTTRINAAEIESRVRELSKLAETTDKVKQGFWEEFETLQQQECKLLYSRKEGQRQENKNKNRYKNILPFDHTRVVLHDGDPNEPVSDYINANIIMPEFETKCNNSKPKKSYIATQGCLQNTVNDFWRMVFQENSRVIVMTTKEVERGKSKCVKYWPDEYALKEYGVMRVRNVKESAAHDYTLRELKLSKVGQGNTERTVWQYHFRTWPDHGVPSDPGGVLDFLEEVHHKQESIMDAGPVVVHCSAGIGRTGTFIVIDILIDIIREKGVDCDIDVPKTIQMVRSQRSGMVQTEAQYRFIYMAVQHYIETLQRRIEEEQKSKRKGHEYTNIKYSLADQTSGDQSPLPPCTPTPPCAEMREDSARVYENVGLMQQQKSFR
Procedure: Cell pellets were collected and suspended in a buffer of 50 mM Tris-HCl (Ph = 8.5), 150 mM NaCl supplemented with 10% glycerol, and lysed by homogeniser (JN-BIO, China). After centrifugation, the collected supernatants were diluted with a Tris-HCl buffer (pH = 8.5) containing 50 mM imidazole and 150 mM NaCl and then loaded onto a Ni-NTA column (#88221, Thermo). The bound SHP2 protein was eluted with a buffer containing 150 and 300 mM imidazole. The pooled protein was loaded onto a HiTrap Q column after dilution in 25 mM Tris-HCl buffer. After elution using a linear gradient of NaCl (0–0.5 M), peak fractions containing the SHP2 protein were concentrated and applied to a gel filtration Superdex 200 column (GE Healthcare). Purified SHP2-PTP proteins were flash-frozen and stored. Similar expression and purification protocols were used for the expression and purification of the full-length SHP2 and SHP2-PTP ^K366A/Q510A double mutants.
A surrogate phosphatase substrate, 6,8-difluoro-4-methylumbelliferyl phosphate (DiFMUP, Thermo Fisher, #D22065), was used to monitor the catalytic activity of SHP2 in a prompt fluorescence assay format. […] The signals were read on a plate reader (SpectraMax iD5, Molecular Devices). […] The inhibitor dose-response curves were evaluated using a normalised IC50 regression curve fitting with control-based normalisation. […]

IC50 (SHP2 PTP domain; 0.5 nM SHP2-PTP, DiFMUP substrate, 30 min co-incubation at 20°C, read-out: IC50 against the SHP2 PTP domain): 1.87 ± 0.85 µM
IC50 (full-length SHP2): 1.98 µM
SMILES: C/C1=C\CCC2=C[C@@H](OC2=O)c2c(C)coc2C1 [LIN, linderalactone]
inhibitory activity in verification experiment of initial hits (SHP2 PTP domain; dose-response confirmation of HTS hits): best inhibitory activity among the screened hits
